Measurements from patent publication US11453689B2, “3-pyrrolidine-indole derivatives as serotonergic psychedelic agents for the treatment of CNS disorders” (Mindset Pharma Inc., priority 2020, dated 2022).

What was measured:
[1] = Mouse liver microsomes stability with NADPH
Method: (§1) The objective of this study was to estimate in vitro metabolic stability of exemplary compounds in pooled human, male rat and male mouse liver microsomes. The concentrations of exemplary compounds in reaction systems were evaluated by LC-MS/MS for estimating the stability in pooled human, male rat and male mouse liver microsomes. The in vitro intrinsic clearances of test compounds were determined as well.
(§2) A master solution in the “Incubation Plate” containing phosphate buffer, ultra-pure H2O, MgCl2 solution and liver microsomes was made according to Table 3. The mixture was pre-warmed at 37° C. water bath for 5 minutes.
(§3) 40 μL of 10 mM NADPH solution was added to each well. The final concentration of NADPH was 1 mM. The negative control samples were prepared by replacing NADPH with 40 μL of ultra-pure H2O. Samples were prepared in duplicate. Negative controls were prepared in singlet.
(§4) The reaction was started with the addition of 4 μL of 200 μM exemplary test compounds or control compounds to each master solution to get the final concentration of 2 μM. This study was performed in duplicate.
(§5) Aliquots of 50 μL were taken from the reaction solution at 0, 15, 30, 45 and 60 minutes. The reaction solutions were stopped by the addition of 4 volumes of cold methanol with IS (100 nM alprazolam, 200 nM imipramine, 200 nM labetalol and 2 μM ketoprofen). Samples were centrifuged at 3,220 g for 40 minutes. Aliquot of 90 μL of the supernatant was mixed with 90 μL of ultra-pure H2O and then was used for LC-MS/MS analysis.
(§6) LC/MS analysis was performed for all samples from this study using a Shimadzu liquid chromatograph separation system equipped with degasser DGU-20A5R; solvent delivery unit LC-30AD; system controller SIL-30AC; column oven CTO-30A; CTC Analytics HTC PAL System. Mass spectrometric analysis was performed using an Triple Quad™ 5500 instrument.
(§7) All calculations were carried out using Microsoft Excel. Peak areas were determined from extracted ion chromatograms. The slope value, k, was determined by linear regression of the natural logarithm of the remaining percentage of the parent drug vs. incubation time curve.
(§8) Conversion of the in vitro t1/2 (min) into the in vitro intrinsic clearance (in vitro CLint, in μL/min/mg proteins) was done using the following equation (mean of duplicate determinations): […]

[2] = Human liver microsomes stability with NADPH
Method: as §1, §2, §3, §4, §5, §6, §7, §8

[3] = Rat liver microsomes stability with NADPH
Method: as §1, §2, §3, §4, §5, §6, §7, §8

[4] = In vivo pharmacokinetics in male SD rats (IV and PO); conditions: rat; for AUC(0-t): read-out: AUC0-tlast; for half-life: read-out: Apparent t1/2 (converted); for MRT inf: read-out: MRT0-inf
Method: (§9) Example 26: In Vivo Assessment of the Pharmacokinetics in Mice and Rats Formulations were administered intravenously (i.v.) via the tail vein or orally (p.o.) by gavage with disposable feeding needles. i. Analysis software: Phoenix® WinNonlin® 8.2 (Pharsight, Certara, Mountainview, Calif.) ii. Analysis methods: non-compartmental analysis, linear up/log down trapezoidal rule iii. PK parameters: C0, t1/2, AUC0-tlast. AUC0-∞, CL, Vss, MRT, tmax(po), Cmax(po), F, as appropriate • C0 concentration extrapolated to time zero following an i.v. dose • tmax time at which maximum concentration is observed • Cmax maximum observed concentration • Apparent t1/2 apparent terminal half-life • AUC0-tlast area under the concentration vs time curve from time 0 to the time of the last measurable concentration • AUC0-inf area under the concentration vs time curve from time 0 to infinity • CL systemic clearance • MRT0-inf mean residence time from time zero to infinity • Vss steady-state volume of distribution • F bioavailability=(Dose^iv*AUC^po)/(Dose^po*AUC^iv)*100

[5] = In vivo pharmacokinetics in male C57BL/6 mice (IV and PO); conditions: mouse; for AUC(0-t): read-out: AUC0-tlast; for half-life: read-out: Apparent t1/2 (converted); for MRT inf: read-out: MRT0-inf; for Vd: read-out: Vss
Method: Example 26: In Vivo Assessment of the Pharmacokinetics in Mice and Rats […]
Male C57BL/6 mice (25-30 g) from Charles River Labs were acclimatized for a minimum of 5 days prior to dosing. Body weights will be recorded on the day of dosing.
Animals dosed p.o. were deprived of food overnight and fed ˜2 h following dosing.
Formulations were administered intravenously (i.v.) via the tail vein or orally (p.o.) by gavage with disposable feeding needles.
Serial blood samples were collected via tail snip. Terminal blood samples will be collected under isoflurane anesthesia by cardiac puncture.
All blood samples were transferred into K2EDTA tubes on wet ice and centrifuged within 5 min (3200×g for 5 min at 4° C.) to obtain plasma. Plasma will be stored at −80° C. until analysis.
as §9, with “AB Sciex QTRAP 4000 or 6500 MS/MS system equipped with an LC system with a binary pump, a solvent degasser, a thermostatted column compartment” for “Example 26: In Vivo Assessment of the Pharmacokinetics in Mice”, “a multiplate autosampler.” for “Rats Formulations were administered intravenously (i.v.) via the tail vein or orally (p.o.) by gavage with disposable feeding needles.”

[6] = male, SD, plasma, IV, 0.3 mg/kg
[7] = male, C57BL/6, plasma, IV, 1 mg/kg
[8] = male, C57BL/6, plasma, IV, 5 mg/kg
[9] = male, C57BL/6, plasma, PO, 10 mg/kg

In the case of `[2H]C([2H])([2H])N1CCC[C@@H]1Cc1c[nH]c2cccc(O)c12` [Compound I-2, (R)-3-((1-(methyl-d3)pyrrolidin-2-yl)methyl)-1H-indol-4-ol], the half-life at 2 μM ([1]; male, mouse, microsomes) is reported as 1.43 h, the microsomal CLint at 2 μM ([1]; male, mouse, microsomes) is reported as 16.2 µL/min/mg and the “Remaining Percentage (%) after 60 min, Mouse” value ([1]; mouse liver microsomes, with NADPH, 2 μM) is reported as 61.51%. For the same molecule, the “Remaining Percentage (%) after 60 min, Human” value ([2]; human liver microsomes, with NADPH, 2 μM) was 82.10%, the half-life at 2 μM ([2]; human, microsomes) was 3.51 h and the microsomal CLint at 2 μM ([2]; human, microsomes) was 6.57 µL/min/mg. The half-life at 2 μM ([3]; male, rat, microsomes) was 0.627 h, the microsomal CLint at 2 μM ([3]; male, rat, microsomes) was 36.8 µL/min/mg and the “Remaining Percentage (%) after 60 min, Rat” value ([3]; rat liver microsomes, with NADPH, 2 μM) was 33.13%. For the same molecule, the AUC(0-inf) [4, 6] was 28.7 ± 3.82 ng·h/mL, the C0 [4, 6] was 77.4 ± 7.22 ng/mL and the clearance [4, 6] was 177 mL/min/kg. It also gave an AUC(0-t) [4, 6] of 27.6 ± 3.27 ng·h/mL, a half-life [4, 6] of 0.593 ± 0.262 h and an MRT inf [4, 6] of 0.609 ± 0.0984 h. For the same molecule, the Vd ([4]; male, SD, plasma, IV, 0.3 mg/kg, read-out: Vss) was 6.45 ± 1.4 L/kg, the AUC(0-inf) ([4]; male, SD, plasma, PO, 3 mg/kg) was 419 ± 56.1 ng·h/mL and the Cmax ([4]; male, SD, plasma, PO, 3 mg/kg) was 201 ± 50.9 ng/mL. For the same molecule, the Tmax ([4]; male, SD, plasma, PO, 3 mg/kg) was 0.333 ± 0.144 h, the AUC(0-t) ([4]; male, SD, plasma, PO, 3 mg/kg) was 409 ± 46.1 ng·h/mL and the half-life ([4]; male, SD, plasma, PO, 3 mg/kg) was 2.69 ± 1.95 h. For the same molecule, the bioavailability ([4]; male, SD, plasma, PO, 3 mg/kg, read-out: F (bioavailability)) was 146 ± 19.5%, the MRT inf ([4]; male, SD, plasma, PO, 3 mg/kg) was 2.29 ± 0.567 h and the AUC0-inf/Dose ([4]; IV, 0.3 mg/kg) was 95.6 ± 12.7 kg·ng·h/mL/mg. For the same molecule, the AUC0-inf/Dose ([4]; PO, 3 mg/kg) was 140 ± 18.7 kg·ng·h/mL/mg, the Cmax/Dose ([4]; PO, 3 mg/kg) was 66.9 ± 17.0 kg·ng/mL/mg and the AUC(0-inf) [5, 7] was 463 ± 423 ng·h/mL. The C0 [5, 7] was 3590 ± 4100 ng/mL, the clearance [5, 7] was 64.5 mL/min/kg and the AUC(0-t) [5, 7] was 461 ± 421 ng·h/mL. The half-life [5, 7] was 3.09 ± 2.79 h, the MRT inf [5, 7] was 0.733 ± 0.194 h and the Vd [5, 7] was 3.09 ± 3.22 L/kg. For the same molecule, the AUC(0-inf) [5, 8] was 1410 ± 862 ng·h/mL, the C0 [5, 8] was 4780 ± 3570 ng/mL and the clearance [5, 8] was 72.8 mL/min/kg. The AUC(0-t) [5, 8] was 1370 ± 869 ng·h/mL, the half-life [5, 8] was 12.7 ± 4.24 h and the MRT inf [5, 8] was 3.1 ± 1.43 h. The Vd [5, 8] was 15.3 ± 10.5 L/kg, the AUC(0-inf) [5, 9] was 314 ng·h/mL and the Cmax [5, 9] was 117 ± 23.7 ng/mL. The Tmax [5, 9] was 0.25 h, the AUC(0-t) [5, 9] was 271 ± 30.9 ng·h/mL and the half-life [5, 9] was 9.31 h. It also gave a bioavailability ([5]; male, C57BL/6, plasma, PO, 10 mg/kg, read-out: F (bioavailability)) of 6.27 ± 0.906%, an MRT inf [5, 9] of 7.88 h and an AUC0-inf/Dose ([5]; IV, 1 mg/kg) of 463 ± 423 kg·ng·h/mL/mg. For the same molecule, the AUC0-inf/Dose ([5]; IV, 5 mg/kg) was 282 ± 172 kg·ng·h/mL/mg, the AUC0-inf/Dose ([5]; PO, 10 mg/kg) was 31.4 (n = 2) h*kg*ng/mL/mg and the Cmax/Dose ([5]; PO, 10 mg/kg) was 11.7 ± 2.37 kg·ng/mL/mg.
